Data taken from patent US20260013501A1, “HERBICIDAL DERIVATIVES” (SYNGENTA CROP PROTECTION AG, priority 2022, published 2026).

Key:
Format in all cases: in vivo
Details in all cases: evaluated after 13 days
[1] = tested on: Echinochloa crus-galli (ECHCG); assay: Pre-emergence Test (Table B1), ECHCG
[2] = tested on: Ipomoea hederacea (IPOHE); assay: Pre-emergence Test (Table B1), IPOHE
Zea mays (ZEAMX) [3] = assay: Pre-emergence Test (Table B1), ZEAMX
[4] = tested on: Amaranthus palmeri (AMAPA); assay: Pre-emergence Test (Table B1), AMAPA
[5] = tested on: Amaranthus retoflexus (AMARE); assay: Pre-emergence Test (Table B1), AMARE
Zea mays (ZEAMX) [6] = assay: Post-emergence Test (Table B2), ZEAMX; parameters: key: 5-point damage scale: 5=81-100%, 4=61-80%, 3=41-60%, 2=21-40%, 1=0-20%
Description: Seeds of a variety of test species are sown in standard soil in pots (Ipomoea hederacea (IPOHE), Zea mays (ZEAMX), Echinochloa crus-galli (ECHCG), Amaranthus palmeri (AMAPA), (Amaranthus retoflexus (AMARE), and (Setaria faberi (SETFA)). After 8 days cultivation under controlled conditions in a glasshouse (at 24° C./16° C., day/night; 14 hours light; 65% humidity), the plants are sprayed with an aqueous spray solution derived from the formulation of the technical active ingredient in acetone/water (50:50) solution containing 0.5% Tween 20 (polyoxyethelyene sorbitan monolaurate, CAS RN 9005-64-5). Rate of application is shown in g/ha in the tables below. The test plants are then grown in a glasshouse under controlled conditions in a glasshouse (at 24° C./16° C., day/night; 14 hours light; 65% humidity) and watered twice daily. After 13 days the test is evaluated for the percentage damage caused to the plant. The biological activities are shown in the following table on a five-point scale (5=81-100%; 4=61-80%; 3=41-60%; 2=21-40%; 1=0-20%; -=not tested).

CCn1c(Cc2cc(C(F)(F)F)ccn2)cc(=O)c(C(=O)O)c1-c1ccc(Cl)c(Cl)c1 [Compound 18, 2-(3,4-dichlorophenyl)-1-ethyl-4-oxo-6-[[4-(trifluoromethyl)-2-pyridyl]methyl]pyridine-3-carboxylic acid]
0: Pre-emergence Test, percentage damage caused to the plant (five-point scale), ECHCG ([1]; Rate 1000 g/Ha)

CCn1c(Cc2ccc(SC)cc2)cc(=O)c(C(=O)O)c1-c1ccc(Cl)c(Cl)c1 [Compound 28, 2-(3,4-dichlorophenyl)-1-ethyl-6-[(4-methylsulfanylphenyl)methyl]-4-oxo-pyridine-3-carboxylic acid]
0: Pre-emergence Test, percentage damage caused to the plant (five-point scale), IPOHE ([2]; Rate 1000 g/Ha) | Pre-emergence Test, percentage damage caused to the plant (five-point scale), ZEAMX (Zea mays (ZEAMX) [3]; Rate 1000 g/Ha) | Pre-emergence Test, percentage damage caused to the plant (five-point scale), AMAPA ([4]; Rate 1000 g/Ha) | Pre-emergence Test, percentage damage caused to the plant (five-point scale), AMARE ([5]; Rate 1000 g/Ha) | percentage damage caused to the plant, ZEAMX (Zea mays (ZEAMX) [6]; rate 1000 g/Ha)

CCn1c(Cc2cc(F)cc(F)c2)cc(=O)c(C(=O)O)c1-c1ccc(Cl)c(Cl)c1 [Compound 29, 2-(3,4-dichlorophenyl)-6-[(3,5-difluorophenyl)methyl]-1-ethyl-4-oxo-pyridine-3-carboxylic acid]
0: Pre-emergence Test, percentage damage caused to the plant (five-point scale), ZEAMX (Zea mays (ZEAMX) [3]; Rate 1000 g/Ha) | Pre-emergence Test, percentage damage caused to the plant (five-point scale), AMAPA ([4]; Rate 1000 g/Ha) | Pre-emergence Test, percentage damage caused to the plant (five-point scale), AMARE ([5]; Rate 1000 g/Ha) | percentage damage caused to the plant, ZEAMX (Zea mays (ZEAMX) [6]; rate 1000 g/Ha)

CCn1c(Cc2cccc(F)c2)cc(=O)c(C(=O)O)c1-c1ccc(Cl)c(Cl)c1 [Compound 37, 2-(3,4-dichlorophenyl)-1-ethyl 6-[(3-fluorophenyl)methyl]-4-oxo-pyridine-3-carboxylic acid]
0: Pre-emergence Test, percentage damage caused to the plant (five-point scale), IPOHE ([2]; Rate 1000 g/Ha) | Pre-emergence Test, percentage damage caused to the plant (five-point scale), ZEAMX (Zea mays (ZEAMX) [3]; Rate 1000 g/Ha) | Pre-emergence Test, percentage damage caused to the plant (five-point scale), AMAPA ([4]; Rate 1000 g/Ha) | Pre-emergence Test, percentage damage caused to the plant (five-point scale), AMARE ([5]; Rate 1000 g/Ha) | percentage damage caused to the plant, ZEAMX (Zea mays (ZEAMX) [6]; rate 1000 g/Ha)

CCn1c(Cc2ccnc(Cl)c2)cc(=O)c(C(=O)O)c1-c1ccc(Cl)c(Cl)c1 [Compound 41, 6-[(2-chloro-4-pyridyl)methyl]-2-(3,4-dichlorophenyl)-1-ethyl-4-oxo-pyridine-3-carboxylic acid]
0: Pre-emergence Test, percentage damage caused to the plant (five-point scale), ZEAMX (Zea mays (ZEAMX) [3]; Rate 250 g/Ha) | Pre-emergence Test, percentage damage caused to the plant (five-point scale), AMAPA ([4]; Rate 250 g/Ha) | Pre-emergence Test, percentage damage caused to the plant (five-point scale), AMARE ([5]; Rate 250 g/Ha) | percentage damage caused to the plant, ZEAMX (Zea mays (ZEAMX) [6]; rate 250 g/Ha)

CCn1c(Cc2cncc(F)c2)cc(=O)c(C(=O)O)c1-c1ccc(Cl)c(Cl)c1 [Compound 42, 2-(3,4-dichlorophenyl)-1-ethyl-6-[(5-fluoro-3-pyridyl)methyl]-4-oxo-pyridine-3-carboxylic acid]
0: Pre-emergence Test, percentage damage caused to the plant (five-point scale), ZEAMX (Zea mays (ZEAMX) [3]; Rate 250 g/Ha) | Pre-emergence Test, percentage damage caused to the plant (five-point scale), ECHCG ([1]; Rate 250 g/Ha) | Pre-emergence Test, percentage damage caused to the plant (five-point scale), AMAPA ([4]; Rate 250 g/Ha) | percentage damage caused to the plant, ZEAMX (Zea mays (ZEAMX) [6]; rate 250 g/Ha)

CCn1c(Cc2nccnc2C(=O)O)cc(=O)c(C(=O)O)c1-c1ccc(Cl)c(Cl)c1 [Compound 49, 3-[[5-carboxy-6-(3,4-dichlorophenyl)-1-ethyl-4-oxo-2-pyridyl]methyl]pyrazine-2-carboxylic acid]
0: Pre-emergence Test, percentage damage caused to the plant (five-point scale), IPOHE ([2]; Rate 250 g/Ha) | Pre-emergence Test, percentage damage caused to the plant (five-point scale), ZEAMX (Zea mays (ZEAMX) [3]; Rate 250 g/Ha) | Pre-emergence Test, percentage damage caused to the plant (five-point scale), AMARE ([5]; Rate 250 g/Ha)

CCn1c(Cc2ccsc2)cc(=O)c(C(=O)O)c1-c1ccc(Cl)c(Cl)c1 [Compound 51, 2-(3,4-dichlorophenyl)-1-ethyl-4-oxo-6-(3-thienylmethyl) pyridine-3-carboxylic acid]
0: Pre-emergence Test, percentage damage caused to the plant (five-point scale), IPOHE ([2]; Rate 1000 g/Ha) | Pre-emergence Test, percentage damage caused to the plant (five-point scale), ZEAMX (Zea mays (ZEAMX) [3]; Rate 1000 g/Ha) | Pre-emergence Test, percentage damage caused to the plant (five-point scale), AMAPA ([4]; Rate 1000 g/Ha) | Pre-emergence Test, percentage damage caused to the plant (five-point scale), AMARE ([5]; Rate 1000 g/Ha)

CCn1c(Cc2ccc(OC(F)(F)F)cc2C)cc(=O)c(C(=O)O)c1-c1ccc(Cl)c(Cl)c1 [Compound 63, 2-(3,4-dichlorophenyl)-1-ethyl-6-[[2-methyl-4-(trifluoromethoxy)phenyl]methyl]-4-oxo-pyridine-3-carboxylic acid]
0: Pre-emergence Test, percentage damage caused to the plant (five-point scale), IPOHE ([2]; Rate 1000 g/Ha) | Pre-emergence Test, percentage damage caused to the plant (five-point scale), ZEAMX (Zea mays (ZEAMX) [3]; Rate 1000 g/Ha) | Pre-emergence Test, percentage damage caused to the plant (five-point scale), AMAPA ([4]; Rate 1000 g/Ha) | Pre-emergence Test, percentage damage caused to the plant (five-point scale), AMARE ([5]; Rate 1000 g/Ha)

CCn1c(Cc2ccc(OC)c(F)c2)cc(=O)c(C(=O)O)c1-c1ccc(Cl)c(Cl)c1 [Compound 83, 2-(3,4-dichlorophenyl)-1-ethyl-6-[(3-fluoro-4-methoxy-phenyl)methyl]-4-oxo-pyridine-3-carboxylic acid]
0: Pre-emergence Test, percentage damage caused to the plant (five-point scale), IPOHE ([2]; Rate 1000 g/Ha) | Pre-emergence Test, percentage damage caused to the plant (five-point scale), ZEAMX (Zea mays (ZEAMX) [3]; Rate 1000 g/Ha) | Pre-emergence Test, percentage damage caused to the plant (five-point scale), AMAPA ([4]; Rate 1000 g/Ha) | Pre-emergence Test, percentage damage caused to the plant (five-point scale), AMARE ([5]; Rate 1000 g/Ha)

CCn1c(Cc2cc(OC)ncn2)cc(=O)c(C(=O)O)c1-c1ccc(Cl)c(Cl)c1 [Compound 100, 2-(3,4-dichlorophenyl)-1-ethyl-6-[(6-methoxypyrimidin-4-yl)methyl]-4-oxo-pyridine-3-carboxylic acid]
0: Pre-emergence Test, percentage damage caused to the plant (five-point scale), ZEAMX (Zea mays (ZEAMX) [3]; Rate 250 g/Ha) | Pre-emergence Test, percentage damage caused to the plant (five-point scale), ECHCG ([1]; Rate 250 g/Ha) | Pre-emergence Test, percentage damage caused to the plant (five-point scale), AMARE ([5]; Rate 250 g/Ha)

CCOC(=O)c1cccc(Cc2cc(=O)c(C(=O)O)c(-c3ccc(Cl)c(Cl)c3)n2CC)n1 [Compound 102, 2-(3,4-dichlorophenyl)-6-[(6-ethoxycarbonylpyridin-1-ium-2-yl)methyl]-1-ehtyl-4-oxo-pyridine-3-carboxylic acid; 2,2,2-trifluoroacetate]
0: Pre-emergence Test, percentage damage caused to the plant (five-point scale), IPOHE ([2]; Rate 1000 g/Ha) | Pre-emergence Test, percentage damage caused to the plant (five-point scale), ZEAMX (Zea mays (ZEAMX) [3]; Rate 1000 g/Ha) | Pre-emergence Test, percentage damage caused to the plant (five-point scale), AMAPA ([4]; Rate 1000 g/Ha) | Pre-emergence Test, percentage damage caused to the plant (five-point scale), AMARE ([5]; Rate 1000 g/Ha) | percentage damage caused to the plant, ZEAMX (Zea mays (ZEAMX) [6]; rate 1000 g/Ha)

CCn1c(Cc2cc(COC)cc(Cl)n2)cc(=O)c(C(=O)O)c1-c1ccc(Cl)c(Cl)c1 [Compound 103, 6-[[6-chloro-4-(methoxymethyl)-2-pyridyl]methyl]-2-(3,4-dichlorophenyl)-1-ethyl-4-oxo-pyridine-3-carboxylic acid]
0: Pre-emergence Test, percentage damage caused to the plant (five-point scale), IPOHE ([2]; Rate 1000 g/Ha) | Pre-emergence Test, percentage damage caused to the plant (five-point scale), ZEAMX (Zea mays (ZEAMX) [3]; Rate 1000 g/Ha) | Pre-emergence Test, percentage damage caused to the plant (five-point scale), AMAPA ([4]; Rate 1000 g/Ha) | Pre-emergence Test, percentage damage caused to the plant (five-point scale), AMARE ([5]; Rate 1000 g/Ha)

CCn1c(Cc2cc(C#N)ccn2)cc(=O)c(C(=O)O)c1-c1ccc(Cl)c(Cl)c1 [Compound 111, 6-[(4-cyano-2-pyridyl)methyl]-2-(3,4-dichlorophenyl)-1-ethyl-4-oxo-pyridine-3-carboxylic acid]
0: Pre-emergence Test, percentage damage caused to the plant (five-point scale), ECHCG ([1]; Rate 250 g/Ha)

CCn1c(Cc2cc(C)ncn2)cc(=O)c(C(=O)O)c1-c1ccc(Cl)c(Cl)c1 [Compound 128, 2-(3,4-dichlorophenyl)-1-ethyl-6-[(6-methylpyrimidin-4-yl)methyl]-4-oxo-pyridine-3-carboxylic acid]
0: Pre-emergence Test, percentage damage caused to the plant (five-point scale), ZEAMX (Zea mays (ZEAMX) [3]; Rate 250 g/Ha) | Pre-emergence Test, percentage damage caused to the plant (five-point scale), ECHCG ([1]; Rate 250 g/Ha) | percentage damage caused to the plant, ZEAMX (Zea mays (ZEAMX) [6]; rate 250 g/Ha)

CCn1c(Cc2cnc(Cl)cn2)cc(=O)c(C(=O)O)c1-c1ccc(Cl)c(Cl)c1 [Compound 143, 6-[(5-chloropyrazin-2-yl)methyl]-2-(3,4-dichlorophenyl)-1-ethyl-4-oxo-pyridine-3-carboxylic acid]
0: Pre-emergence Test, percentage damage caused to the plant (five-point scale), ZEAMX (Zea mays (ZEAMX) [3]; Rate 250 g/Ha) | Pre-emergence Test, percentage damage caused to the plant (five-point scale), ECHCG ([1]; Rate 250 g/Ha) | Pre-emergence Test, percentage damage caused to the plant (five-point scale), AMAPA ([4]; Rate 250 g/Ha) | percentage damage caused to the plant, ZEAMX (Zea mays (ZEAMX) [6]; rate 250 g/Ha)

CCn1c(Cc2csnc2C)cc(=O)c(C(=O)O)c1-c1ccc(Cl)c(Cl)c1 [Compound 150, 2-(3,4-dichlorophenyl)-1-ethyl-6-[(3-methylisothiazol-4-yl)methyl]-4-oxo-pyridine-3-carboxylic acid]
0: Pre-emergence Test, percentage damage caused to the plant (five-point scale), IPOHE ([2]; Rate 250 g/Ha) | Pre-emergence Test, percentage damage caused to the plant (five-point scale), ZEAMX (Zea mays (ZEAMX) [3]; Rate 250 g/Ha) | percentage damage caused to the plant, ZEAMX (Zea mays (ZEAMX) [6]; rate 250 g/Ha)
